{"source": "paper PMC5972519", "about": "(Journal of pharmaceutical and biomedical analysis, 2016)", "key": {"[1]": {"test": "Plasma pharmacokinetics of", "assay_type": "in vivo, Wistar rat", "conditions": "for Plasma concentration at 30 min after ip administration: Acute Arm, single ip 40 mg/kg (R,S)-Ket; for Plasma concentration Ratio (C/A): Chronic Arm / Acute Arm; for t1/2 / Cmax / concentration at 30 min / concentration at 40 min / Tmax: plasma; for t1/2 Ratio (A/C): Acute Arm t1/2 / Chronic Arm t1/2 (fold reduction by 14-day dosing); for concentration at 30 min / concentration at 40 min: male, Wistar, rat, ip"}, "[2]": {"test": "Partitioning between whole blood and plasma", "assay_type": "in vitro ADME", "conditions": "mouse whole blood, spiked 10, 1 and 0.1 μM, 30 min at 37°C"}, "[3]": {"conditions": "Acute: single ip 40 mg/kg (R,S)-Ket"}, "[4]": {"conditions": "Acute: single ip 40 mg/kg (R,S)-Ket, 40 mg/kg"}, "[5]": {"conditions": "Sub-chronic: Day 14 of ip 40 mg/kg (R,S)-Ket once per day for 14 days"}}}
{"smiles": "NC1(c2ccccc2Cl)CCC=CC1=O", "note": "(racemic) [(R,S)-DHNK, (R,S)-dehydronorketamie]", "values": [{"measurement": "Plasma concentration at any sampling time", "setting": "[1]; after ip 40 mg/kg (R,S)-Ket, both arms", "result": "≤ 10", "unit": "ng/mL"}, {"measurement": "Share of compound found in the plasma fraction after incubation with whole blood", "setting": "[2]", "result": "< 20", "unit": "%"}]}
{"smiles": "NC1(c2ccccc2Cl)CC(O)CCC1=O", "note": "[(2S,4S;2R,4R)-HNK]", "values": [{"measurement": "Plasma concentration between 5 min and 60 min post-administration", "setting": "[1]; [3]", "result": "> 50", "unit": "ng/mL"}, {"measurement": "Plasma concentration at 10 min post-dosing", "setting": "[1]; [4]", "result": "196 ± 132", "unit": "ng/mL"}]}
{"smiles": "NC1(c2ccccc2Cl)CC(O)CCC1=O", "note": "[(2S,4R;2R,4S)-HNK, (2S,4R;2R,4S)-hydroxynorketamine]", "values": [{"measurement": "Plasma concentration at 30 min after ip administration", "setting": "[1]", "result": 218, "unit": "ng/mL"}, {"measurement": "Plasma concentration between 5 min and 60 min post-administration", "setting": "[1]; [3]", "result": "> 50", "unit": "ng/mL"}, {"measurement": "Plasma concentration at 10 min post-dosing", "setting": "[1]; [4]", "result": "257 ± 195", "unit": "ng/mL"}, {"measurement": "Plasma concentration Ratio (C/A)", "setting": "[1]; 30 min post dosing", "result": 1.7}, {"measurement": "Plasma concentration Ratio (C/A)", "setting": "[1]; 30 min post dosing, listed as (2S,4R,2R,4S)-HNK", "result": 1.73}, {"measurement": "t1/2", "setting": "[1]; [5]", "result": 5.0, "unit": "h"}]}
{"smiles": "NC1(c2ccccc2Cl)CCCC(O)C1=O", "note": "[(2S,6R;2R,6S)-HNK, (2S,6R;2R,6S)-hydroxynorketamine]", "values": [{"measurement": "Plasma concentration at 30 min after ip administration", "setting": "[1]", "result": 172, "unit": "ng/mL"}, {"measurement": "Plasma concentration at 10 min post-dosing", "setting": "[1]; [3]", "result": "252 ± 81", "unit": "ng/mL"}, {"measurement": "Plasma concentration between 5 min and 60 min post-administration", "setting": "[1]; [3]", "result": "> 50", "unit": "ng/mL"}, {"measurement": "Plasma concentration Ratio (C/A)", "setting": "[1]; 30 min post dosing", "result": 4.5}, {"measurement": "Plasma concentration Ratio (C/A)", "setting": "[1]; 30 min post dosing, listed as (2S,6R,2R,6S)-HNK", "result": 4.53}, {"measurement": "Cmax", "setting": "[1]; [5]", "result": 2101, "unit": "ng/mL"}, {"measurement": "t1/2", "setting": "[1]; [5]", "result": 1.3, "unit": "h"}]}
{"smiles": "NC1(c2ccccc2Cl)CCCCC1=O", "note": "(racemic) [(R,S)-norKet, (R,S)-norketamine]", "values": [{"measurement": "Fold reduction of relative plasma concentration by subchronic dosing", "setting": "[1]; 30 min post dosing, subchronic versus acute", "result": 1.6, "unit": "fold"}, {"measurement": "t1/2 Ratio (A/C)", "setting": "[1]", "result": 1.4}, {"measurement": "Plasma concentration between 5 min and 60 min post-administration", "setting": "[1]; [3]", "result": "> 1,000 ng/ml"}, {"measurement": "Plasma concentration Ratio (C/A)", "setting": "[1]; 30 min post dosing", "result": 0.62}, {"measurement": "concentration at 30 min", "setting": "[1]; 40 mg/kg", "result": 2130, "unit": "ng/mL"}, {"measurement": "concentration at 40 min", "setting": "[1]; 40 mg/kg", "result": 1340, "unit": "ng/mL"}, {"measurement": "Share of compound found in the plasma fraction after incubation with whole blood", "setting": "[2]", "result": "> 90", "unit": "%"}]}
{"smiles": "N[C@@]1(c2ccccc2Cl)CCC[C@@H](O)C1=O", "note": "[(2S,6S;2R,6R)-HNK, (2S,6S;2R,6R)-hydroxynorketamine]", "values": [{"measurement": "t1/2 Ratio (A/C)", "setting": "[1]", "result": 1.2}, {"measurement": "Plasma concentration at 30 min after ip administration", "setting": "[1]", "result": 4327, "unit": "ng/mL"}, {"measurement": "Plasma concentration between 5 min and 60 min post-administration", "setting": "[1]; [3]", "result": "> 1,000 ng/ml"}, {"measurement": "Cmax", "setting": "[1]; [3]", "result": "4641 ± 2020", "unit": "ng/mL"}, {"measurement": "Tmax", "setting": "[1]; [3]", "result": "0.61 ± 0.35", "unit": "h"}, {"measurement": "t1/2", "setting": "[1]; Acute: single ip 40 mg/kg (R,S)-Ket, male Wistar rats", "result": "13.2 ± 3.7", "unit": "h"}, {"measurement": "Plasma concentration Ratio (C/A)", "setting": "[1]; 30 min post dosing", "result": 1.4}, {"measurement": "Plasma concentration Ratio (C/A)", "setting": "[1]; 30 min post dosing, listed as (2S,6S,2R,6R)-HNK", "result": 1.42}, {"measurement": "Plasma concentration at 72 hr post-administration", "setting": "[1]; Sub-chronic, Day 14 dose", "result": "15 ± 7", "unit": "ng/mL"}, {"measurement": "Cmax", "setting": "[1]; [5]", "result": "6491 ± 3008", "unit": "ng/mL"}, {"measurement": "Tmax", "setting": "[1]; [5]", "result": "0.78 ± 0.19", "unit": "h"}, {"measurement": "t1/2", "setting": "[1]; [5]", "result": "11.1 ± 1.8", "unit": "h"}]}
{"smiles": "CNC1(c2ccccc2Cl)CCCCC1=O", "note": "(racemic) [(R,S)-Ket, (R,S)-Ketamine, reference compound]", "values": [{"measurement": "Plasma concentration between 5 min and 60 min post-administration", "setting": "[1]; [3]", "result": "> 1,000 ng/ml"}, {"measurement": "concentration at 30 min", "setting": "[1]; 40 mg/kg", "result": 2780, "unit": "ng/mL"}, {"measurement": "concentration at 40 min", "setting": "[1]; 40 mg/kg", "result": 2600, "unit": "ng/mL"}, {"measurement": "Share of compound found in the plasma fraction after incubation with whole blood", "setting": "[2]", "result": "> 90", "unit": "%"}]}
{"smiles": "NC1(c2ccccc2Cl)CCC(O)CC1=O", "note": "[(2S,5S;2R,5R)-HNK]", "values": [{"measurement": "Plasma concentration at 10 min post-dosing", "setting": "[1]; [3]", "result": "181 ± 141", "unit": "ng/mL"}, {"measurement": "Plasma concentration between 5 min and 60 min post-administration", "setting": "[1]; [3]", "result": "> 50", "unit": "ng/mL"}]}
